Measurements: patent US20090029856A1, “Hinokitiol As A Plant Pesticide” (priority 2007, published 2009)
Converted amounts (≈) assume the structure as drawn. “And” between values parts separate entries of the source, which are not always exact repeats. Identical values can stand only once.

Tests used:
[1] = tested on: Lactuca sativa (lettuce) seeds; experiment: 96-well seed germination inhibition screen; type: in vivo; conditions: single lettuce seed per well, 50 μL solution, 5× dilution series
Procedure: Numerous natural compounds were screened for their ability to inhibit the germination of dicot (broadleaved weed) seeds. A single seed of Lactuca sativa (lettuce) was placed in each well of a 96-well plate followed by 50 μL of a solution of each compound in a stepwise (5×) dilution series from 25% to 0%. Germination was monitored daily. Based on this screening study, the threshold value for hinokitiol to inhibit germination of seeds was determined at 0.32 mg/L.

[2] = tested on: spurge, white clover, annual bluegrass and crab grass; experiment: Field study of herbicidal effect, % weed control; type: in vivo
Procedure: A hinokitiol formulation containing 32.4% of hinokitiol by weight was tested in a field study. The formulation also contained dispersing agent, water and emulsifier. The two concentrations tested contained 5% and 0.5% hinokitiol (w/w), and the spraying volume was 100 gallons per acre. Three replicate 1-square-foot plots were sprayed with the appropriate solutions, and the % weed control in each plot was recorded at 3, 7, 14 and 20 days after treatment. The main weeds in this study were spurge, white clover, annual bluegrass and crab grass.

[3] = tested on: grey mold (Botrytis cinerea); experiment: In vivo greenhouse test on green bell pepper (Capsicum annuum) against grey mold; conditions: for Average (mean) disease rating, 2 days / Average (mean) disease rating, 3 days / Average (mean) disease rating, 7 days: mean of 3 replicates; for rating at day 3 / rating at day 7 / rating at day 2: single replicates
Procedure: To further test the inhibitory effect of hinokitiol on grey mold (Botrytis cinerea), an in vivo test on green bell pepper (Capsicum annuum) was conducted in a greenhouse. Pepper plants at a 6-true-leaf growth stage were sprayed with hinokitiol in 50% ethanol. The stock solution (5 mg/mL) was prepared in 97% ethanol, and diluted to following concentrations: 0, 0.01, 0.1 mg/mL. To compare the efficacy of hinokitiol in an alcohol-free solution, a treatment with 0.1 mg/mL of hinokitiol in water was included in this study. Pepper plants with no treatment were used as controls. All treatments were carried out in 3 replicates. After treatment with hinokitiol, the leaf surfaces were allowed to dry under the growth lights, after which the plants were inoculated with a B. cinerea spore solution containing 2×10^6 spores per mL. Inoculated plants were incubated in the dark in a covered flat at 22° C. […] Symptoms were rated on a scale of 0-5; 0 indicating no lesions on leaves, and 5 indicating severe rotting/dead plant.

[4] = Analysis of hinokitiol residue on green beans after sun exposure; type: physicochemical, green bean; conditions: for [hinokitiol] in the HPLC injection solution: green bean leaves
Procedure: The goal of this study was to know stability of hinokitiol on plant leaves, instead of vials, after sun exposure. The following procedure was used • 1. A 3.2% Hinokitiol formulation containing propylene glycol, nonphytotoxic ethoxylate fatty esters; butanol, EDTA, UV protection agent, 1% sodium hydroxide and water for a total of 100% was used. The total weight of each formulation was 20 grams. • 2. Spraying solution: 10 mL of 100-fold dilution of the above formulation. • 3. Green bean plants: 6 plants with 10-15 leaves. • 4. Two plants were evenly sprayed 10 mL solution. • 5. Three plants was stored in dark incubator (25° C.), another three plants was put on the parking lot with full sun exposure (28˜35° C.). • 6. After 6 h, leaves were cut and punched into the same size discs (Ø21 mm). Discs from sun-exposed green bean and darkness green bean were 118 and 129, respectively. • 7. Discs were ground in a mortar and transferred into a separation funnel. The mortar and pestle were sequentially washed with 2 N HCl and ethyl acetate. The hinokitiol was extracted three times (3×50 mL) by ethyl acetate under 2N HCl (100 mL). The organic phase was dried by anhydrous sodium sulfate. After filtration and evaporation, the organic phase gave out a residue. The residue was dissolved by ethanol (1.5 mL). This solution was directly used for HPLC analysis. Injection volume was 10 μL.
• Darkness: leaf disc 129 • Sun exposure: leaf disc 118 • Darkness: Peak area (AU): 50463 • Sun exposure: Peak Area (AU); 13197 • Standard line: y=66.367X-52.019 (R^2=0.9999, X=μg/ml of hinokitiol standard solution, 2 μL injection volume; y=peak area)
• [hinokitiol] from darkness=152 μg/mL*1.5 mL/129 Disc=1.77 μg/Disc • [hinokitiol] from sun exposure=40 μg/mL*1.5 mL/118 Disc =0.51 μg/Disc
• [hinokitiol] from sun exposure/[hinokitiol] from darkness=0.51/1.77=0.29

Botrytis cinerea = experiment: Spiral gradient dilution method, inhibition of mycelial growth and spore germination; type: cell-based
Procedure: (§1) In this method, a potato dextrose agar (PDA) medium is plated with the test solution by means of a spiral plater, which applies the compound in a 2.5-log dilution in a continuous radial concentration gradient. Fungal inoculum in two replicates is then placed along radial lines across the gradient. […] EC50 values were calculated based on these measurements. The fungi evaluated were members of the following families Anamorphic Phyllachoraceae (Colletotrichum acutatum), Anamorphic Sclerotiniaceae (Botrytis cinerea), Mitosporic fungi (Verticillium dahlias; Microphomina sp.), and Oomycota (Phytophtora capsici). Hinokitiol (5 mg/mL) was dissolved in acetone, and acetone alone was also used as a control to check for non-specific inhibition.

Rhizoctonia = experiment: Hinokitiol spiral PDA plates, growth after 2 days; type: cell-based; conditions: 2 days of incubation
Procedure: as §1
(§2) Another set of hinokitiol spiral PDA plates prepared as above were inoculated with plant pathogenic fungi from the genera Mucor, Rhizoctonia, Geotrichum, Phoma, and Penicillium.

Penicillium = experiment: Hinokitiol spiral PDA plates, growth after 2 days; type: cell-based; conditions: 2 days of incubation
Procedure: as §1, §2

Phoma = experiment: Hinokitiol spiral PDA plates, growth after 2 days; type: cell-based; conditions: 2 days of incubation
Procedure: as §1, §2

Mucor = experiment: Hinokitiol spiral PDA plates, growth after 2 days; type: cell-based; conditions: 2 days of incubation
Procedure: as §1, §2

Geotrichum = experiment: Hinokitiol spiral PDA plates, growth after 2 days; type: cell-based; conditions: 2 days of incubation
Procedure: as §1, §2

[5] = 0.01 mg/mL in 50% ethanol, scale 0-5
[6] = 0.1 mg/mL in 50% ethanol, scale 0-5

## CC(C)c1cccc(=O)c(O)c1 [Hinokitiol, 4-isopropyl tropolone]
[1]
  threshold value to inhibit germination of seeds: 0.32 mg/L
[2]; 0.5% hinokitiol (w/w), 3 DAYS
  % weed control: 3.3%
[2]; 0.5% hinokitiol (w/w), 7 DAYS
  % weed control: 3.7%
[2]; 0.5% hinokitiol (w/w), 14 DAYS
  % weed control: 1.7%
[2]; 0.5% hinokitiol (w/w), 20 DAYS
  % weed control: 3.0%
[2]; 5.0% hinokitiol (w/w), 7 DAYS
  % weed control: 90.3%
[2]; 5.0% hinokitiol (w/w), 14 DAYS
  % weed control: 88.3%
[2]; 5.0% hinokitiol (w/w), 20 DAYS
  % weed control: 83.7%
[2]; 5.0% hinokitiol (w/w), 100 gallons per acre, 3 DAYS
  % weed control: 86.7%
[2]; formulation containing 5% (w/w) hinokitiol, one week after spraying
  weeds controlled: more than 90%
[2]; same solution at 10× lower concentration
  herbicidal effect on weeds: negligible effect
[3]; 0.01 mg/mL EtOH, scale 0-5
  Average (mean) disease rating, 2 days: 1.7 a
  Average (mean) disease rating, 3 days: 2.7 ab
  Average (mean) disease rating, 7 days: 3.0 ab
[3]; [5]
  rating at day 3: 4 and 3 and 1
  rating at day 7: 5 and 3 and 1
[3]; 0.01 mg/mL in 50% ethanol, scale 0-5 (0 no lesions, 5 severe rotting/dead plant)
  rating at day 2: 2 (2×) and 1
[3]; 0.1 mg/mL EtOH, scale 0-5
  Average (mean) disease rating, 2 days: 1.7 a
  Average (mean) disease rating, 3 days: 2.7 ab
  Average (mean) disease rating, 7 days: 4.0 ab
[3]; 0.1 mg/mL H2O, scale 0-5
  Average (mean) disease rating, 2 days: 0.3 b
  Average (mean) disease rating, 3 days: 0.7 b
  Average (mean) disease rating, 7 days: 2.3 b
[3]; [6]
  rating at day 2: 2 (2×) and 1
  rating at day 3: 3 (2×) and 2
  rating at day 7: 5 (2×) and 2
[3]; 0.1 mg/mL in water, scale 0-5
  rating at day 2: 0 (2×) and 1
  rating at day 3: 0 and 1 (2×)
  rating at day 7: 1 and 2 and 4
[3]; 0.1 mg/mL water
  incidence of B. cinerea compared with untreated control pepper plants: significantly lower
[3]; dissolved in ethanol at 0.01 and 0.1 mg/mL
  disease outbreak and final disease incidence compared with untreated control: postponed the disease outbreak but the final disease incidence was not significantly different from the untreated control
[4]; 6 h
  Relative stability: [hinokitiol] from sun exposure/[hinokitiol] from darkness: 0.29
[4]; 6 h darkness, 25° C.
  hinokitiol concentration on each disc of green beans: 1.77 μg/Disc
  [hinokitiol] in the HPLC injection solution: 152 µg/mL
[4]; 6 h sun exposure, 28-35° C.
  hinokitiol concentration on each disc of green beans: 0.51 μg/Disc
  [hinokitiol] in the HPLC injection solution: 40 µg/mL
[4]; after 6 h sun exposure at 28-35° C.
  hinokitiol concentration per unit area (Disc) relative to that stored in the darkness at 25° C.: 29%
[4]; green bean plants
  time the residue on the plant would last: at least one day
Botrytis cinerea; B. cinerea, hinokitiol at concentrations 5-0.05 mg/mL, light microscope
  inhibition in spore germination: 100%
Botrytis cinerea; Botrytis cinerea, PDA, 20° C., hinokitiol in acetone
  EC50: 31 µg/mL (≈ 189 µM)
Rhizoctonia
  inhibition of growth: complete inhibition
Penicillium
  inhibition of growth: complete inhibition
Phoma
  inhibition of growth: complete inhibition
Mucor
  inhibition of growth: complete inhibition
Geotrichum
  inhibition of growth: complete inhibition
